The target in data set [1] is JAK3: Recombinant human kinase domain (Homo sapiens, UniProt P52333). As to the kind of experiment: Determination of IC50 of Janus Kinase (JAK) inhibition, radioactive end-point 33P-ATP assay, JAK3. It is filed as biochemical. Particulars: 0.5 nM or 0.2 nM JAK3, ATP 1.5 uM, peptide 50 uM, 20 minutes; read-out: IC50 h-jak3-sf21-c. The text has this: (§1) Determination of IC50 of Janus Kinase (JAK) Inhibition: […]

In data set [2] the target is JAK2: Recombinant human kinase domain (Homo sapiens, UniProt O60674). As to the kind of experiment: Determination of IC50 of Janus Kinase (JAK) inhibition, radioactive end-point 33P-ATP assay, JAK2. It is filed as biochemical. Particulars: 1 nM JAK2, ATP 1.5 uM, peptide 50 uM, 20 minutes; read-out: IC50 h-jak2-sf21-c.
From the text: as §1

pIC50: −log10 of the molar value.

Sequence of JAK3: Recombinant human kinase domain (P52333 822-1111 limits assumed): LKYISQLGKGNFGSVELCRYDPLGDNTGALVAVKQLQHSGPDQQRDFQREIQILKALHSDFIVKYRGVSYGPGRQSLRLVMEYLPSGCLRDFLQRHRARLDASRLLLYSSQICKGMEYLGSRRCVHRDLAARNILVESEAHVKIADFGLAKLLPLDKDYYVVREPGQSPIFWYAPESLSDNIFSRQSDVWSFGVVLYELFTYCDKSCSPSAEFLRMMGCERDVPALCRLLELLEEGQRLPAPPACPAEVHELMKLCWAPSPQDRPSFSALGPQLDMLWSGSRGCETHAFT
Sequence of JAK2: Recombinant human kinase domain (O60674 849-1124 limits assumed): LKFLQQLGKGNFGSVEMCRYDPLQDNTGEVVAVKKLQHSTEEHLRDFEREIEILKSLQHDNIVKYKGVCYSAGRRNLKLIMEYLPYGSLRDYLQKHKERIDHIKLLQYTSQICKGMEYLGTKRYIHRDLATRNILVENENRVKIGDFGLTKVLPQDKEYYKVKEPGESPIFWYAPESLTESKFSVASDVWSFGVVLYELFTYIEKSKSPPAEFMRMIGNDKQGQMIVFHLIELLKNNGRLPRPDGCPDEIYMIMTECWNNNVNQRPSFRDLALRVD

`CC(C)NC(=O)c1c[nH]c2ncc(N(C)C3CCCC3)nc12` [Compound I-1, 2-(Cyclopentyl-methyl-amino)-5H-pyrrolo[2,3-b]pyrazine-7-carboxylic acid isopropylamide] gave a melting point of 277 to 278 °C. Besides, in data set [1], the pIC50 is 7.23. For the same compound, the pIC50 in data set [2] is 6.89. As to `CC(C)(C)C(=O)c1cnc2[nH]cc(C(=O)C(C)(C)C)c2n1` [Compound I-2, 1-[7-(2,2-Dimethyl-propionyl)-5H-pyrrolo[2,3-b]pyrazin-2-yl]-2,2-dimethyl-propan-1-one], the melting point lay within 188 to 198 °C. As to `CC(C)(C)C(=O)c1c[nH]c2ncc(C(=O)NC3CCCC3)nc12` [Compound I-15, 7-(2,2-Dimethyl-propionyl)-5H-pyrrolo[2,3-b]pyrazine-2-carboxylic acid cyclopentylamide], the melting point lay in the range of 237.9 to 241.5 °C. With `CN1CCN(c2ccc(Nc3cnc4[nH]cc(C(=O)C(C)(C)C)c4n3)cc2)CC1` [Compound I-34, 2,2-Dimethyl-1-{2-[4-(4-methyl-piperazin-1-yl)-phenylamino]-5H-pyrrolo[2,3-b]pyrazin-7-yl}-propan-1-one], in data set [1], the pIC50 was 6.33. Take `CN1CCN(c2cccc(Nc3cnc4[nH]cc(C(=O)C(C)(C)C)c4n3)c2)CC1` [Compound I-35, 2,2-Dimethyl-1-{2-[3-(4-methyl-piperazin-1-yl)-phenylamino]-5H-pyrrolo[2,3-b]pyrazin-7-yl}-propan-1-one]: in data set [1], the pIC50 is 6.30.

By melting point is commonly meant the temperature, or range, at which the solid turns liquid. Broadly, the pIC50 is the negative decadic logarithm of the IC50, by convention in mol/L.

For the origin of these results see patent US7902197B2, “Pyrrolopyrazine kinase inhibitors” (Roche Palo Alto LLC, priority 2008, dated 2011).
